Patent US20250101041A1, “POSITIVE ALLOSTERIC MODULATORS OF THE MUSCARINIC ACETYLCHOLINE RECEPTOR M4” (Vanderbilt University, priority 2022, published 2025)

Target: T1, human mAChR M4 (Homo sapiens, UniProt P08173)
T1 construct: expressed in transfected cells; host or cells: CHO-K1 (American Type Culture Collection), stably expressing hM4 and Gqi5
T1 sequence (P08173 1-479): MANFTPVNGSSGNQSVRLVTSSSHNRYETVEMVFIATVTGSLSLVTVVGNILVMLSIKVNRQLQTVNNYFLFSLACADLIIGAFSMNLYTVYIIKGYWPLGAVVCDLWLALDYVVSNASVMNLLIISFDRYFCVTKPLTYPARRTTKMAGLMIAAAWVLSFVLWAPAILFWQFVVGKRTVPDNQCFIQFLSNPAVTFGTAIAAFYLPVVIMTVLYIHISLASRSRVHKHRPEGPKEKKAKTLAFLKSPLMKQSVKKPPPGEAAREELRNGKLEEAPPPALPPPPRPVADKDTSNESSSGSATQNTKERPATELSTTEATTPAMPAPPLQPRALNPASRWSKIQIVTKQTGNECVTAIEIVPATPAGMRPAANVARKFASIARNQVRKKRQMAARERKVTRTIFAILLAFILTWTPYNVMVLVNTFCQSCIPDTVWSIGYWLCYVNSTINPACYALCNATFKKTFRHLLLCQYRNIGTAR
Experiment: mAChR M4 cell-based functional assay: calcium mobilization (Fluo-4, FDSS), potentiation of EC20 acetylcholine response in hM4-Gqi5 CHO-K1 cells
Details: human M4; for Emax at 30 µM: CHO-K1, % ACh maximum at 30 μM; for EC50: potentiation of EC20 acetylcholine response, calcium mobilization
Outline: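 Readout is the fluorescence-ratio rise at 1 Hz on FDSS, with PAM activity taken as concentration-dependent enhancement of the EC20 acetylcholine response, fitted four-parameter for EC50/Emax. hM4-Gqi5 CHO-K1 cells carried Fluo-4 AM dye; test compounds (11 points, 1:3) preceded EC20 acetylcholine additions at 144 s and 230 s.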

Compound | Emax at 30 µM [%] | EC50 [nM]
Cc1c(N2CCc3ncc(-c4cnn(C5CCCCO5)c4)cc3C2)nn2c(=O)ccnc2c1C (stereo not shown) [Compound 1-150, 8,9-dimethyl-7-(3-(1-(tetrahydro-2H-pyran-2-yl)-1H-pyrazol-4-yl)-7,8-dihydro-1,6-naphthyridin-6(5H)-yl)-4H-pyrimido[1,2-b]pyridazin-4-one] | 74 | 511
Cc1c(N2CCc3ncc(-c4ccnn4C4COC4)cc3C2)nn2c(=O)ccnc2c1C [Compound 1-151, 8,9-dimethyl-7-(3-(1-(oxetan-3-yl)-1H-pyrazol-5-yl)-7,8-dihydro-1,6-naphthyridin-6(5H)-yl)-4H-pyrimido[1,2-b]pyridazin-4-one] | 75 | 3210
Cc1c(N2CCc3ncc(-c4cnn(C5CC5)c4)cc3C2)nn2c(=O)ccnc2c1C [Compound 1-152, 7-(3-(1-cyclopropyl-1H-pyrazol-4-yl)-7,8-dihydro-1,6-naphthyridin-6(5H)-yl)-8,9-dimethyl-4H-pyrimido[1,2-b]pyridazin-4-one] | 80 | 133
Cc1c(N2CCc3ncc(-c4cnn(-c5ccccn5)c4)cc3C2)nn2c(=O)ccnc2c1C [Compound 1-153, 8,9-dimethyl-7-(3-(1-(pyridin-2-yl)-1H-pyrazol-4-yl)-7,8-dihydro-1,6-naphthyridin-6(5H)-yl)-4H-pyrimido[1,2-b]pyridazin-4-one] | 67 | 584
Cc1c(N2CCc3ncc(-c4cncc(C(F)(F)F)c4)cc3C2)nn2c(=O)cc(C(F)F)nc2c1C [Compound 1-154, 2-(difluoromethyl)-8,9-dimethyl-7-(3-(5-(trifluoromethyl)pyridin-3-yl)-7,8-dihydro-1,6-naphthyridin-6(5H)-yl)-4H-pyrimido[1,2-b]pyridazin-4-one] | 80 | 401
Cc1c(N2CCc3ncc(-c4cccnc4)cc3C2)nn2c(=O)cc(C(F)F)nc2c1C [Compound 1-155, 2-(difluoromethyl)-8,9-dimethyl-7-(3-(pyridin-3-yl)-7,8-dihydro-1,6-naphthyridin-6(5H)-yl)-4H-pyrimido[1,2-b]pyridazin-4-one] | 91 | 62
Cc1c(N2CCc3ncc(-c4cncc(F)c4)cc3C2)nn2c(=O)cc(C(F)F)nc2c1C [Compound 1-156, 2-(difluoromethyl)-7-(3-(5-fluoropyridin-3-yl)-7,8-dihydro-1,6-naphthyridin-6(5H)-yl)-8,9-dimethyl-4H-pyrimido[1,2-b]pyridazin-4-one] | 95 | 204
Cc1c(N2CCc3ncc(-c4cncc(C#N)c4)cc3C2)nn2c(=O)cc(C(F)F)nc2c1C [Compound 1-157, 5-(6-(2-(difluoromethyl)-8,9-dimethyl-4-oxo-4H-pyrimido[1,2-b]pyridazin-7-yl)-5,6,7,8-tetrahydro-1,6-naphthyridin-3-yl)nicotinonitrile] | 100 | 426
Cc1c(N2CCc3ncc(-c4ccnnc4)cc3C2)nn2c(=O)cc(C(F)F)nc2c1C [Compound 1-158, 2-(difluoromethyl)-8,9-dimethyl-7-(3-(pyridazin-4-yl)-7,8-dihydro-1,6-naphthyridin-6(5H)-yl)-4H-pyrimido[1,2-b]pyridazin-4-one] | 94 | 251
Cc1c(N2CCc3ncc(-c4cncnc4)cc3C2)nn2c(=O)cc(C(F)F)nc2c1C [Compound 1-159, 2-(difluoromethyl)-8,9-dimethyl-7-(3-(pyrimidin-5-yl)-7,8-dihydro-1,6-naphthyridin-6(5H)-yl)-4H-pyrimido[1,2-b]pyridazin-4-one] | 86 | 3060
Cc1c(N2CCc3ncc(-c4cncc(Cl)c4)cc3C2)nn2c(=O)cc(C(F)F)nc2c1C [Compound 1-160, 7-(3-(5-chloropyridin-3-yl)-7,8-dihydro-1,6-naphthyridin-6(5H)-yl)-2-(difluoromethyl)-8,9-dimethyl-4H-pyrimido[1,2-b]pyridazin-4-one] | 82 | 547
